Assay results taken from patent publication US8518942B2, “Caspase inhibitors and uses thereof” (Buck Institute for Research on Aging, priority 2008, dated 2013).

Legend:
Format in all cases: biochemical
caspase-6 [1] = biological target: T1, caspase-6 (Homo sapiens, UniProt P55212); assay: Irreversible inhibitor kinetic assay (progress curve), caspase-6, substrate Ac-DEVD-AMC; details: casp-6; duplicate, SD included
T1 construct: gift: Guy Salvesen's laboratory, Burnham Institute (La Jolla, Calif.)
T1 sequence (P55212 24-179 limits assumed): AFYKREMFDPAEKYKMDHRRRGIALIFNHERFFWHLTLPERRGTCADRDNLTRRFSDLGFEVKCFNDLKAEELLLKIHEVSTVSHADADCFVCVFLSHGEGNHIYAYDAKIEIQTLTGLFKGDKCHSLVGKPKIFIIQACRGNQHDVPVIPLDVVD
T1 sequence (P55212 194-293 limits assumed): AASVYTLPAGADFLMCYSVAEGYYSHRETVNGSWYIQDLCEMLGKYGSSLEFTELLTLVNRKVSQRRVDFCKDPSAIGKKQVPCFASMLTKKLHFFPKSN
Text: (§1) Caspases-3, -6, -7, -8, and -9 were provided by Guy Salvesen's laboratory at the Burnham Institute (La Jolla, Calif.). Caspase-1 was purchased from EMD Biosciences (San Diego, Calif.) and Caspase-2 was purchased from Biomol International (Plymouth Meeting, Pa.). Caspase substrates Ac-DEVD-AMC, Ac-VDVAD-AFC, and Ac-LEHD-AFC were purchased from EMD Biosciences (San Diego, Calif.) and Ac-VDVAD-AMC was purchased from Biomol International (Plymouth Meeting, Pa.). The proteolytic cleavage of N-acyl aminocoumarins by caspases was conducted in Dynatech Microfluor fluorescence 96-well microtiter plates, and readings were taken on a Molecular Devices Spectra Max Gemini XS instrument. The excitation wavelength was 370 nm and the emission wavelength was 455 nm for AMCA substrates, the excitation wavelength was 355 nm and the emission wavelength was 450 nm for peptidyl AMC substrates, and the excitation wavelength was 430 nm and the emission wavelength was 535 nm for peptidyl AFC substrates.
(§2) The kinact/Ki for inhibitors were determined under pseudo-first order conditions using the progress curve method (Eckici et al. (2006) J. Med. Chem., 49: 5728-5749; Bieth (1995) Meth. Enzymol., 248: 59-84). Assay wells contained a mixture of inhibitor and AMC or AFC substrate in buffer. Aliquots of caspase were added to each well to initiate the assay. Hydrolysis of the AMC or AFC substrate was monitored fluorometrically for 45 min. To determine the inhibition parameters, time points for which the control ([I]=0) was linear were used. For each inhibitor, a kobs was calculated for at least four different concentrations of inhibitors via a nonlinear regression of the data according to the equation P=(vi/kobs)[1−exp(−kobst) (where product formation=P, […], and the first-order rate constant=kobs). If kobs varied linearly with [I], then the association constant kass was determined by linear regression analysis using kobs=(kass[I])/(1+[S]/Km) where [S] is the concentration of the substrate. […] Inhibition was measured in duplicate and the average of is reported. […]

caspase-7 = biological target: T2, caspase-7 (Homo sapiens, UniProt P55210); assay: Irreversible inhibitor kinetic assay (progress curve), caspase-7, substrate Ac-DEVD-AMC; details: casp-7; duplicate, SD included
T2 construct: gift: Guy Salvesen's laboratory, Burnham Institute (La Jolla, Calif.)
T2 sequence (P55210 24-198 limits assumed): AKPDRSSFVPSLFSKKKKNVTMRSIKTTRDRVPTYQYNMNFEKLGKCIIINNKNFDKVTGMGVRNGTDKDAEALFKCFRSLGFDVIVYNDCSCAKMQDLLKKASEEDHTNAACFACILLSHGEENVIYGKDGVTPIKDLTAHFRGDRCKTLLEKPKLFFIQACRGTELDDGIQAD
T2 sequence (P55210 207-303 limits assumed): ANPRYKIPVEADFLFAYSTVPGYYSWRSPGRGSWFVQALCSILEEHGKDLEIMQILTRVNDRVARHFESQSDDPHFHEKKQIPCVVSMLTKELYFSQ
Text: as §1, §2

caspase-8 = biological target: T3, caspase-8 (Homo sapiens, UniProt Q14790); assay: Irreversible inhibitor kinetic assay (progress curve), caspase-8, substrate Ac-DEVD-AMC; details: casp-8; duplicate, SD included
T3 construct: gift: Guy Salvesen's laboratory, Burnham Institute (La Jolla, Calif.)
Text: as §1, §2

caspase-6 [2] = biological target: T1, caspase-6; assay: Blots of full-length huntingtin (23Q & 148Q) treated with caspase-6 plus inhibitor; details: for Proteolysis of Htt at amino acid 586 (caspase-6 site): 1-100 nM; for Inhibition of caspase-6 cleavage of full-length huntingtin (blot): 23Q & 148Q, at 1.0 μM and 10 μM; for Blocking the cleavage of Htt at amino acid 586 mediated by caspase-6: conclusion
Caspase 3 = biological target: T4, Caspase 3 (Homo sapiens, UniProt P42574); assay: Blots of full-length huntingtin (23Q & 148Q) treated with Caspase 3 plus inhibitor; details: for Proteolysis of Htt at amino acid 513 (caspase-3 site): 1-100 nM; for Inhibition of Caspase 3 cleavage of full-length huntingtin (blot): 23Q & 148Q, at 0.1 μM, 1.0 μM and 10 μM; for Blocking the cleavage of Htt at amino acid 513 mediated by caspase-3: conclusion
T4 sequence (P42574 29-175 limits assumed): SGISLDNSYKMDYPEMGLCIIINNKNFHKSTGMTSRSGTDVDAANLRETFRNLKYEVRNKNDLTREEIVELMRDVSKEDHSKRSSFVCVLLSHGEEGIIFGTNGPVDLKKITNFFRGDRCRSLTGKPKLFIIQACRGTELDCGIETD
T4 sequence (P42574 176-277 limits assumed): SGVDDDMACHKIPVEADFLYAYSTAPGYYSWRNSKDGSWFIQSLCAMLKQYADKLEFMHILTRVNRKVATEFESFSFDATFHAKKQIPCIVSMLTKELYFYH

T3 sequence (Q14790 217-374 limits assumed): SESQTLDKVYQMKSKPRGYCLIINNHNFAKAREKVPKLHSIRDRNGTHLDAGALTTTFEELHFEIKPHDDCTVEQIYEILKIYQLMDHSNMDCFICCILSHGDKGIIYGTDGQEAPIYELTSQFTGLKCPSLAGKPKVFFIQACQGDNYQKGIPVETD
T3 sequence (Q14790 385-479 limits assumed): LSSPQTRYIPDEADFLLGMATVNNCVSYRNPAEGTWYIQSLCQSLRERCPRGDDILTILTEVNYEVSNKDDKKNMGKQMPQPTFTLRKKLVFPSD

| SMILES | kinact/Ki (caspase-6 [1]) | kinact/Ki (caspase-7) | kinact/Ki (caspase-8) | Proteolysis of Htt at amino acid 586 (caspase-6 site) (caspase-6 [2]) | Inhibition of caspase-6 cleavage of full-length huntingtin (blot) (caspase-6 [2]) | Blocking the cleavage of Htt at amino acid 586 mediated by caspase-6 (caspase-6 [2]) | Proteolysis of Htt at amino acid 513 (caspase-3 site) (Caspase 3) | Inhibition of Caspase 3 cleavage of full-length huntingtin (blot) (Caspase 3) | Blocking the cleavage of Htt at amino acid 513 mediated by caspase-3 (Caspase 3) |
| --- | --- | --- | --- | --- | --- | --- | --- | --- | --- |
| C[C@@](NC(=O)CCCC(=O)O)(c1cn([C@@H](CC(=O)O)C(=O)COc2c(F)c(F)cc(F)c2F)nn1)C1CCCCC1 [MJL-002i] | 32,950 ± 1,650 s^−1/M^−1 | 57,250 ± 1,550 s^−1/M^−1 | 30,650 ± 1,950 s^−1/M^−1 | blocked | inhibition | affective at blocking | blocked | inhibition | affective at blocking |
| C[C@@](NC(=O)Cc1ccccc1)(c1cn([C@@H](CC(=O)O)C(=O)COc2c(F)c(F)cc(F)c2F)nn1)C1CCCCC1 [MJL-003i] | 45,750 ± 450 s^−1/M^−1 | 34,200 ± 3,800 s^−1/M^−1 | 60,000 ± 2,800 s^−1/M^−1 | blocked | inhibition | affective at blocking | blocked | inhibition | affective at blocking |
| C[C@@](NS(=O)(=O)Cc1ccccc1)(c1cn([C@@H](CC(=O)O)C(=O)COc2c(F)c(F)cc(F)c2F)nn1)C1CCCCC1 [MJL-001i] | 23,100 ± 1,900 s^−1/M^−1 | 27,700 ± 2,000 s^−1/M^−1 | 82,850 ± 1,150 s^−1/M^−1 | blocked | inhibition | affective at blocking | blocked | inhibition | affective at blocking |
